Each structure is given as a SMILES string. Where “and” joins values, the source holds several entries; their conditions need not be identical. Equal values may be shown once. Calls of active or inactive are those of the source. How the calls were made is not given here. Where a SMILES comes first, the peptide text is derived from it. The star is where a group is joined. Cbz = O=C(OCc1ccccc1)*

Assay [1] can be described thus: Mycobacterium tuberculosis H37Rv growth inhibition, glycerol free medium, confirmatory screen (AID 504645).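 Further: bacteria grown one week before the viability dye was added.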 The note with it: M. tuberculosis H37Rv growth inhibition, glycerol-free medium; at 25 µM (top of the series).
In assay [2] the test system is M. tuberculosis H37Rv growth inhibition, glycerol-free medium. The description is as above. The note with it: for IC90: measured here: 90% growth inhibition.

In the case of `CCOc1ccc(NC(=O)CSc2nc(N)c(-c3ccccc3)c(=O)[nH]2)cc1`, the inhibition in assay [1] was 2.14% (inactive).
For the molecule `CCOC(=O)COn1c2c(c3c4no[n+]([O-])c4ccc31)CCCC2`, in assay [2], the IC50 was 1850 nM and the IC90 stood at 2860 nM.
`Cc1ccc(NC(=O)COC(=O)CCc2c[nH]c3ccccc23)cc1[N+](=O)[O-]`: in assay [2], the IC50 was 1920 nM and the IC90 is 4350 nM.
As to `S=c1nc[nH]c2nc[nH]c12`, in assay [2], the half-maximal inhibitory concentration (IC50) was 1480 nM and the IC90 stood at 1720 nM.
As to `Cc1[nH]c(=S)[nH]c(=O)c1C`, in assay [1], the inhibition is -1.69% (inactive).
As to `CCC(Sc1nc(=O)cc(N)n1-c1ccccc1)C(=O)Nc1cc(C)on1` (stereo not given), the inhibition in assay [1] was 3.38% (inactive).
With `COC(=O)C1CC(=O)N(c2ccc(OCc3ccccc3Cl)cc2)C1` (stereo not given), in assay [2], the IC50 was 750 nM and the IC90 turned out to be 3010 nM.
As to `CCOC(=O)CSc1ncnc2c1cnn2-c1ccc(C)cc1`, in assay [2], the concentration for half-maximal inhibition (IC50) was 10100 nM and the IC90 was over 25000 nM.
As for `CCSc1nc2ccccc2c(=O)[nH]1`, in assay [1], the inhibition is 4.69% (inactive).
For `Oc1ccccc1/C=N/Nc1ccnc(SCc2ccccc2)n1`, the inhibition in assay [1] is 2.52% (inactive).
Consider `Cc1ccc(NC(=O)C2C3/C=C\CCCCC32)cc1C` (stereo not given), for which, in assay [2], the IC50 is 1720 nM and the IC90 is over 25000 nM.
For `Cc1ccc(C(=O)N/N=C(/CC(=O)c2cccs2)C(F)(F)F)cc1`, in that order: 2100 nM and 2810 nM.
For `CCC(C)Nc1ccc(NC(C)CC)cc1` (stereo not given), in that order: 1270 nM and 1940 nM.
For the molecule `O=C(c1ccc(CNc2c(N3CCOCC3)c(=O)c2=O)cc1)N1CC=C(c2ccccc2)CC1`, in assay [2], the IC50 was 1110 nM and the IC90 was found to be 2170 nM.
For `CCOC(=O)CSc1ncnc2c1cnn2-c1ccccc1`, in assay [2], the IC50 was 13100 nM and the IC90 is over 25000 nM.
Turning to `CCOC(=O)C(C)Sc1ncnc2c1nnn2-c1ccc(F)cc1` (stereo not given), in assay [2], the IC50 is 1200 nM and 4550 nM; the IC90 is 2920 nM and 8280 nM.
In the case of `CCc1c(C)nc(SCC(=O)NC2CCCC2)[nH]c1=O`, in assay [2], the half-inhibitory concentration (IC50) is 2250 nM and the IC90 stood at 3210 nM.
Consider `COC(=O)c1cc(=O)n(-c2ccc(F)cc2)c(=Nc2ccc(F)cc2)s1`, for which, in assay [2], the IC50 was 640 nM and the concentration for an effect of 90% (IC90) came to 1000 nM.
Consider `CCC(Sc1ncnc2c1nnn2-c1ccc(F)cc1)C(=O)OC` (stereo not given), for which, in assay [2], the IC50 is 11900 nM and the IC90 was over 25000 nM.
In the case of `O=C(NCC(c1cccs1)N1CCOCC1)c1cc([N+](=O)[O-])cc([N+](=O)[O-])c1` (stereo not given), in assay [2], the 50% inhibitory concentration (IC50) is 410 nM and the IC90 came to 910 nM.
For `COc1cc(NC(=O)C/C(C)=N/NC(=O)c2ccccn2)c(OC)cc1Cl`, in that order: 2780 nM and 7910 nM.
For `Cc1cc(C)n2nc(N)c(N=Nc3ccccc3)c2n1`, in that order: 2490 nM and 3560 nM.
Turning to `Cc1cccc(/C=C/C(=O)c2ccc([N+](=O)[O-])o2)c1`, in assay [2], the IC50 was 450 nM and the IC90 was 650 nM.
In the case of `CC(C)OC(=O)CSc1ncnc2c1cnn2-c1ccccc1`, in assay [2], the IC50 was 17900 nM and the 90% effect concentration (IC90) is over 25000 nM.
In the case of `CCc1c(C)nc(SCC(=O)Nc2ccc3c(c2)OCCO3)[nH]c1=O`, in assay [2], the IC50 is 19400 nM and the IC90 was over 25000 nM.
Consider `O=C(c1ccc(CNc2c(N3CCCC3)c(=O)c2=O)cc1)N1CCN(C2CCCCC2)CC1`, for which, in assay [2], the IC90 is over 25000 nM.
Take `CCOc1ccc(-c2cc(C)[n+](CCc3ccc(OC)c(OC)c3)c(-c3ccc(OCC)cc3)c2)cc1`: in assay [2], the IC50 was 660 nM and the IC90 came out at 1030 nM.
As for `Cc1ccc2ccc3ccc(C)nc3c2n1`, in assay [2], the half-maximal inhibitory concentration (IC50) was 530 nM and the IC90 turned out to be 780 nM.
For the molecule `CC1CC(C)CN(C(=O)C2CCC(CNc3c(N4CCCCC4)c(=O)c3=O)CC2)C1` (stereo not given), in assay [2], the IC50 was 13300 nM and the IC90 was over 25000 nM.
For `CC1CCN(C(=O)C2CCN(c3nnc(-n4cccc4)s3)CC2)CC1`, in that order: 1640 nM and 3340 nM.
On to `COC(=O)CCc1nc2c(C#N)c(-c3ccc(Cl)cc3)ccn2n1`, for which, in assay [2], the IC50 was 2540 nM and the IC90 was 3800 nM.
Regarding `COC(=O)C(C)Sc1ncnc2c1nnn2-c1ccc(F)cc1` (stereo not given), in assay [2], the IC50 is 2420 nM and the IC90 worked out at 4380 nM.
`CCOC(=O)CSc1ncnc2c1cnn2-c1ccc(Cl)cc1`: in assay [2], the IC50 was 4980 nM and the IC90 is over 25000 nM.
As to `CNc1nc(SCc2ccccc2Cl)nc2c1CCCC2`, in assay [2], the IC50 is 1080 nM and the 90% effect concentration (IC90) amounted to 2330 nM.
Turning to `COC(=O)C(C)Oc1ccc(Cc2ncc(C(F)(F)F)cc2Cl)cc1` (stereo not given), in assay [2], the IC50 is 2620 nM and the IC90 stood at 4010 nM.
Take `CCOC(=O)CSc1ncnc2c1cnn2-c1ccc(C)cc1C`: in assay [2], the IC50 is 4490 nM and the concentration for an effect of 90% (IC90) was found to be 6980 nM.
As to `CCOC(=O)CSc1ncnc2c1nnn2-c1ccc(F)cc1`, in assay [2], the IC50 is 3640 nM and the IC90 was found to be 6160 nM.
On to `Cc1nn2c(NCc3ccccn3)cc(C(C)C)nc2c1-c1ccccc1`, for which, in assay [2], the IC50 was 1970 nM and the 90% effect concentration (IC90) worked out at 2540 nM.
For `CC1CCCN(C(=O)c2ccc(CNc3c(N4CCCCC4)c(=O)c3=O)cc2)C1` (stereo not given), in that order: 2580 nM and over 25000 nM.
Take `CCOC1OC(=O)C(Cl)=C1Nc1ccccc1C` (stereo not given): in assay [2], the IC50 is 2260 nM and the IC90 was determined as 5590 nM.
Turning to `COc1ccc(N2CCN(C(=O)c3ccc(CNc4c(N5CCOCC5)c(=O)c4=O)cc3)CC2)cc1`, in assay [2], the 50% inhibitory concentration (IC50) was 3410 nM and the 90% effect concentration (IC90) is over 25000 nM.
In the case of `Cc1nc(SCC(=O)NC2CCCCC2)[nH]c(=O)c1C`, in assay [2], the IC50 is 670 nM and 2390 nM; the IC90 was 1070 nM and 3730 nM.
With `COC(=O)CSc1ncnc2c1cnn2-c1ccc(C)cc1C`, in assay [2], the IC50 was 4500 nM and the 90% effect concentration (IC90) was 6950 nM.
In assay [2], `Cc1cccc(N2CCN(C(=O)c3ccc(CNc4c(N5CCC(C)CC5)c(=O)c4=O)cc3)CC2)c1C` showed an IC90 of over 25000 nM.
`COc1ccc(-n2nnc3c(SCC(=O)OCc4ccccc4)ncnc32)cc1`: in assay [2], the IC50 is 2810 nM and the IC90 was over 25000 nM.
Turning to `c1ccc(/N=C2\N=C(Nc3ccccn3)c3ccccc32)nc1`, in assay [2], the IC50 is 170 nM and the IC90 is 290 nM.
Turning to `CCOc1ccc(NC(=O)CSc2nc(O)c(C)c(=O)n2-c2ccc(F)cc2)cc1`, in assay [2], the IC90 was over 25000 nM.
Consider `CC(C)NC(=O)c1sc(=S)n2c1[nH]c(=O)c1ccc(C(=O)NCCc3ccc(Cl)cc3)cc12`, for which, in assay [2], the IC50 was 310 nM and the concentration for an effect of 90% (IC90) was determined as 530 nM.
Take `O=C(CSc1nc2ccccc2c(=O)[nH]1)NCc1ccc(Cl)cc1`: in assay [2], the IC50 is 630 nM and 2190 nM; the IC90 is 900 nM and 3160 nM.
Take `O=C(CSc1nc2c(c(=O)[nH]1)CCC2)Nc1ccc(F)cc1`: in assay [2], the half-maximal inhibitory concentration (IC50) was 17100 nM and the IC90 was over 25000 nM.
For `Cc1nc(SCC(=O)NC2CCCC2)[nH]c(=O)c1C`, in that order: 9960 nM and 16000 nM.
On to `Nc1c(C(=O)NC2CCCCC2)nsc1C(=O)OCC(=O)NC1CCCCC1`, for which, in assay [2], the IC50 is 1230 nM and the IC90 amounted to 2640 nM.
For `O=C(NCCc1ccc(Cl)cc1)c1ccc(CNc2c(N3CCOCC3)c(=O)c2=O)cc1`, in that order: 5060 nM and 6950 nM.
Take `CCOC(=O)c1ccc(NC(=O)Cn2ncc(Cl)c(Cl)c2=O)cc1`: in assay [2], the IC50 is 440 nM and the IC90 worked out at 1170 nM.
For `O=C(/C=C\c1cccs1)N1CCN(Cc2ccc3c(c2)OCO3)CC1`, in that order: 360 nM and 1570 nM.
Turning to `O=C(c1ccc(CNc2c(N3CCCC3)c(=O)c2=O)cc1)N1CCc2ccccc2C1`, in assay [2], the IC50 was 4370 nM and the IC90 was over 25000 nM.
With `CC(=NCc1ccc2c(c1)OCO2)C1=C(O)c2ccccc2C1=O`, in assay [2], the half-maximal inhibitory concentration (IC50) was 330 nM and the IC90 is 2350 nM.
Turning to `Cc1cccc(-c2oc3ccc(-c4ccc5c(c4)OCO5)cc3c2C#Cc2cncn2C)c1`, in assay [2], the IC50 is 1380 nM and the IC90 was 1860 nM.
Take `O=C(CSc1nc2ccccc2c(=O)[nH]1)NC1CCCCC1`: in assay [2], the IC50 was 70 nM and the IC90 is 130 nM.
As for `CC(=O)c1ccc(NC(=O)c2ccc(CNc3c(N4CCOCC4)c(=O)c3=O)cc2)cc1`, in assay [2], the IC50 was 20000 nM and the IC90 was over 25000 nM.
For `Cc1ccc2c(c1)c(C1=c3ccccc3=NC1=O)c(O)n2C`, in that order: 1460 nM and 3610 nM.
Take `CC1CC(C)CN(C(=O)c2ccc(CNc3c(N4CCCC4)c(=O)c3=O)cc2)C1` (stereo not given): in assay [2], the half-maximal inhibitory concentration (IC50) was 6340 nM and the IC90 was over 25000 nM.
Regarding `CCc1ccc(/C=C2/C(=O)N(C)C(=S)N2CC(=O)OC)s1`, in assay [2], the IC50 is 1910 nM and the IC90 amounted to 4610 nM.
Take `CC[N+](C)(CC)CCCCOc1ccc2c(c1)C(=O)c1cc(OCCCC[N+](C)(CC)CC)ccc1-2`: in assay [2], the concentration for half-maximal inhibition (IC50) is 1320 nM and the IC90 stood at 2130 nM.
For the molecule `CC1CCN(C(=O)c2ccc(CNc3c(N4CCCC4)c(=O)c3=O)cc2)CC1`, in assay [2], the IC50 is 5850 nM and the IC90 came to 6690 nM.
On to `CC1CCCN(C(=O)C2CCC(CNc3c(N4CCCCC4)c(=O)c3=O)CC2)C1` (stereo not given), for which, in assay [2], the IC50 is 19000 nM and the IC90 was over 25000 nM.
For `O=C(c1ccc(CNc2c(N3CCCC3)c(=O)c2=O)cc1)N1CC=C(c2ccccc2)CC1`, in that order: 2520 nM and 6760 nM.
With `CC(C)CCNC(=O)CSc1nc2ccccc2c(=O)[nH]1`, in assay [2], the IC50 was 2310 nM and the IC90 is 3830 nM.
For `O=C1C(Br)=Cc2cccc3cccc1c23`, in that order: 350 nM and 1130 nM.
Regarding `CCOC(=O)CNC(=O)[C@H](Cc1ccccc1)NC(=O)OCc1ccccc1` (Cbz-Phe-Gly-OEt), in assay [2], the IC50 is 2150 nM and the 90% effect concentration (IC90) was determined as 3090 nM.
For `O=C(/C=C/c1ccccc1)N1CCN(CCN2C(=O)c3cccc4cccc(c34)C2=O)CC1`, in that order: 2070 nM and 5380 nM.
Consider `COC(=O)C(C)Oc1ccc(-c2nccc(-c3ccccn3)n2)cc1` (stereo not given), for which, in assay [2], the IC50 is 2640 nM and the IC90 came to 4530 nM.
For `Cc1cc(Br)ccc1NC(=O)c1cnc(N2CCN(c3ccccn3)CC2)c2ccccc12`, in that order: 1250 nM and 2000 nM.
As for `CCOC(=O)COc1ccc(/C=C2\NC(=S)N(CC)C2=O)cc1`, in assay [2], the IC50 is 2620 nM and the IC90 came out at 4740 nM.

(Values after PubChem BioAssay AID504645 (Southern Research Specialized Biocontainment Screening …, 2011).)
